Experimental data taken from patent publication US20070299102A1, “Diphenyl Ox-Indol-2-One Compounds and Their Use in the Treatment of Cancer” (Topo Target A/S, priority 2004, published 2007).
Entries after “also recorded” stand apart in the source; their conditions may differ.

Experiments:
MDA-MB-231 cells = test: Protein synthesis, 14C-Leucine incorporation (Cytostar-T); format: cell-based, human; details: all time-points
Description: (§1) As described in “Leucine Uptake [^14C] Cytostar-T assay, Amersham Biosciences” (CFA773).
(§2) And incubated overnight in growth medium. The next day medium was carefully aspirated (8-channel Vacuboy) and 50 μL of fresh pre-warmed medium (10% FCS, 10 mM HEPES pH 7.2-7.5) was added. Cells were allowed to equilibrate at 37° C. for 60 min. Test compounds were added in 50 μL medium and ^14C-leucine was added in 100 μL medium (0.5 μCi mL−1 final). Plates were sealed with transparent, adhesive foil. Plates were then incubated in a 37° C. for 6 h in a humidified incubator. Incorporation of radioactive leucine into proteins (a measure of protein synthesis) was then read by coincidence scintillation (counts per minute (CPM)) using a Wallac Microbeta detector at the indicated time-intervals. A reading a t=0 (5 min after sealing plates) for each well is subtracted as background.

MDA-MB-468 cells = test: as above; format: cell-based, human; details: all time-points
Description: as §1, §2

[1] = system: PC-3 prostate cancer cell line; test: Alamar Blue cell proliferation assay; format: cell-based, human
Description: (§3) Cell culture: All cell lines except MCF10A are maintained in RPMI medium containing 10% foetal Bovine Serum (FBS) 100 U/ml penicillin, and 100 μg/ml streptomycin. MCF10A is maintained in mammary epithelial growth medium (MEGM) with singlequot addition (BPE, hydrocortisone, hEGF, insulin, gentamicin/amphotericin-B) (Clonetics/Cambrex Bio Science). All cell lines are incubated at 37° C., 5% CO2, and 95% humidity.
(§4) Alamar Blue cell proliferation assay: Cells are plated in black cell culture treated Packard/Perkin Elmer 96-viewplates in 100 μl/well RPMI medium containing […], 100 U/ml penicillin, and 100 μg/ml streptomycin. Cell proliferation has been estimated in triplicate for all cell lines in medium containing either 1% FBS or 10% FBS. […]
(§5) The number of viable cells is estimated using an Alamar Blue assay that measures mitochondrial activity. […] Alamar Blue signal is read in a fluorescence plate reader using a 590 nm emission filter and a 530 nm excitation filter.
(§6) Data handling/calculations: Data are normalised to values from 0% activity (S0) to 100% activity (Smax). Average values for S0 and Smax are calculated and used to calculate percent activity (PCTACT) in the assays by the formula: PCTACT=(Xraw−Smax)/(S0−Smax)*100.

MCF-7 tumours = test: Xenograft studies using MCF-7 tumours; format: in vivo, mice
Description: Nude balb/c mice weighing 25-45 grams are implanted with MCF-7 tumours by subcutaneous implantation in both flanks. […] Tumour volume is determined once or twice/week.

MDA-MB-468 tumours = test: Xenograft studies using MDA-MB-468 tumours; format: in vivo, mice
[2] = system: panel of prostate cancer cell lines; test: Alamar Blue cell proliferation assay, summary over the prostate panel; format: cell-based; details: 10% FBS
Description: as §3, §4, §5, §6

[3] = system: HCC-1954 breast cancer cell line; test: Alamar Blue cell proliferation assay; format: cell-based; details: Homo sapiens, HCC1954, 72 h, HCC-1954, 10% FBS, read-out: EC50 (nM), IC50 values for inhibition of cell proliferation
Description: as §3
(§7) Alamar Blue cell proliferation assay: Cells are plated in black cell culture treated Packard/Perkin Elmer 96-viewplates in 100 μl/well RPMI medium containing […], 100 U/ml penicillin, and 100 μg/ml streptomycin. Cell proliferation has been estimated in triplicate for all cell lines in medium containing either 1% FBS or 10% FBS. The day after plating, the growth medium is changed to either 100 μl/well RPMI containing 1% FBS, 100 U/ml penicillin, 100 μg/ml streptomycin and 25 μg/ml gentamicin or to 100 μl/well RPMI containing 10% FBS, 100 U/ml penicillin, 100 μg/ml streptomycin and 25 μg/ml gentamicin. Compounds are added in 9 point half-log dilution series at concentrations indicated in the graphs. […] Briefly, compounds are diluted in compound plates in growth medium containing either 1% FBS or 10% FBS corresponding to the medium in the plates. Compounds are transferred to the cell plates by transfer of 100 μl/well, resulting in a total volume of 200 μl/well containing compound at concentrations indicated in graphs and 0.25% DMSO. Terfenedine is used as a control for maximal cell kill in wells containing 50 μM terfenedine and 0.5% DMSO (Smax). Negative control wells (So) contain medium with 0.25% DMSO.
(§8) After compound addition cell plates are incubated undisturbed for 72 hours at 37° C., 5% CO2, and 95% humidity.
(§9) The number of viable cells is estimated using an Alamar Blue assay that measures mitochondrial activity. The medium is decanted and replaced with 150 μl/well RPMI medium without phenol-red containing 100 U/ml penicillin, and 100 μg/ml streptomycin and 10% Alamar Blue. The plates are placed in the incubator at 37° C., 5% CO2, and 95% humidity for 2 hours. Then, plates are moved to a table and allowed to cool to room temperature without stacking the plates. Alamar Blue signal is read in a fluorescence plate reader using a 590 nm emission filter and a 530 nm excitation filter.
as §6

[4] = system: ZR75-1 breast cancer cell line; test: Alamar Blue cell proliferation assay; format: cell-based; details: Homo sapiens, ZR-75-1; ZR75-1, 10% FBS, 72 hours; read-out: EC50 (nM); IC50 values for inhibition of cell proliferation
Description: as §3, §7, §8, §9, §6

[5] = system: T47-D breast cancer cell line; test: Alamar Blue cell proliferation assay; format: cell-based; details: Homo sapiens, T47D, 72 h, 10% FBS, read-out: EC50 (nM), IC50 values for inhibition of cell proliferation
Description: as §3, §7, §8, §9, §6

[6] = system: SKBr-3 breast cancer cell line; test: Alamar Blue cell proliferation assay; format: cell-based; details: Homo sapiens, SK-BR-3, 72 h, SKBr-3, 10% FBS, read-out: EC50 (nM), IC50 values for inhibition of cell proliferation
Description: as §3, §7, §8, §9, §6

[7] = system: non-transformed human breast epithelial cell line MCF10A; test: Alamar Blue cell proliferation assay; format: cell-based; details: MCF-10A, serum-free MEGM medium, 72 hours, read-out: EC50 (nM), IC50 values for inhibition of cell proliferation
Description: as §3, §7, §8, §9, §6

[8] = system: MDA-MB-468 breast cancer cell line; test: Alamar Blue cell proliferation assay; format: cell-based; details: Homo sapiens, MDA-MB-468, 72 h, MDA-MB-468, 10% FBS, read-out: EC50 (nM), IC50 values for inhibition of cell proliferation
Description: as §3, §7, §8, §9, §6

[9] = system: MDA-MB-435S breast cancer cell line; test: Alamar Blue cell proliferation assay; format: cell-based; details: Homo sapiens, 10% FBS, 72 hours, read-out: EC50 (nM), IC50 values for inhibition of cell proliferation
Description: as §3, §7, §8, §9, §6

[10] = system: MDA-MB-231 breast cancer cell line; test: Alamar Blue cell proliferation assay; format: cell-based; details: Homo sapiens; MDA-MB-231, 10% FBS, 72 hours; read-out: EC50 (nM); IC50 values for inhibition of cell proliferation
Description: as §3, §7, §8, §9, §6

[11] = system: PC-3/M prostate cancer cell line; test: Alamar Blue cell proliferation assay; format: cell-based; details: Homo sapiens, 10% FBS, 72 hours, read-out: EC50 (nM), IC50 values for inhibition of cell proliferation
Description: as §3, §7, §8, §9, §6

[12] = system: LnCaP prostate cancer cell line; test: Alamar Blue cell proliferation assay; format: cell-based; details: Homo sapiens, 10% FBS, 72 hours, read-out: EC50 (nM), IC50 values for inhibition of cell proliferation
Description: as §3, §7, §8, §9, §6

[13] = system: BT-549 breast cancer cell line; test: Alamar Blue cell proliferation assay; format: cell-based; details: Homo sapiens, BT-549, 72 h, BT-549, 10% FBS, read-out: EC50 (nM), IC50 values for inhibition of cell proliferation
Description: as §3, §7, §8, §9, §6

[14] = system: BT-474 breast cancer cell line; test: Alamar Blue cell proliferation assay; format: cell-based; details: Homo sapiens, BT-474, 72 h, BT-474, 10% FBS, read-out: EC50 (nM), IC50 values for inhibition of cell proliferation
Description: as §3, §7, §8, §9, §6

[15] = system: MCF7 breast cancer cell line; test: Alamar Blue cell proliferation assay; format: cell-based; details: Homo sapiens, MCF7, 72 h, MCF7, 10% FBS, read-out: EC50 (nM), IC50 values for inhibition of cell proliferation
Description: as §3, §7, §8, §9, §6

[16] = system: DU-145 prostate cancer cell line; test: Alamar Blue cell proliferation assay; format: cell-based; details: Homo sapiens; DU-145, 10% FBS, 72 hours; read-out: EC50 (nM); IC50 values for inhibition of cell proliferation
Description: as §3, §7, §8, §9, §6

[17] = system: MDA-MB-453 breast cancer cell line; test: Alamar Blue cell proliferation assay; format: cell-based; details: Homo sapiens, MDA-MB-453, 72 h, MDA-MB-453, 10% FBS, read-out: EC50 (nM), IC50 values for inhibition of cell proliferation
Description: as §3, §7, §8, §9, §6

[18] = system: panel of human breast cancer cell lines; test: Alamar Blue cell proliferation assay, summary over the breast panel; format: cell-based; details: 10% FBS; FIGS. 9, 10 and 11
Description: as §3, §4, §5, §6

[19] = system: mTOR pathway proteins (p70S6K, S6, 4E-BP1, AKT, cyclin D3) in MDA-468 cells; test: Western Blots on proteins involved in translational control; format: cell-based, human; details: MDA-468, 24 hour incubation
Description: 16-24 hours after, the growth medium were shifted to growth medium containing compounds.
After 24 or 48 hours incubation with compounds, cells were washed with ice cold PBS buffer and harvested in lysis buffer: Cytobuster reagent (Novagen) containing phosphatase inhibitor cocktail 1 and 2 and protease inhibitor cocktail (Sigma). Samples containing an equal amount of protein were loaded onto 7% Tris Acetate gels, 10% Bis-Tris in MES buffer or 12% Bis-Tris gels using MOPS running buffer (Invitrogen). Following electrophoresis the samples were blotted onto a PVDF membrane (Invitrogen). For membrane blocking and antibody incubations of p70 S6K, Phospho-p70 S6K (Thr389), PathscanI and S6 antibodies (Cell Signalling Technology) a buffer containing 0.2% Tween-20, 5% non-fat dry milk, 5% FBS, in Tris buffered Saline (TBS) were used. For immunoblotting of 4EBP1, Phospho 4EBP1 (Thr37/46), Phospho 4EBP1 (Ser65) (Cell Signalling Technology) and Cyclin D3 (Santa Cruz) a protocol from Cell Signalling Technology were used. Cell Signalling Technology blocking buffer contains 0.1% Tween-20, 5% non fat dry milk in TBS and primary antibody dilution buffer contains 0.1% Tween-20, 5% BSA in TBS. Before adding primary antibody dilution buffer to the membranes, the blots were rinsed briefly in 0.1% Tween-20. […] Peroxidase activity was detected using the ECL detection system (Amersham Biosciences).

[20] = monotherapy, PO daily for 15 days or IV weekly for 4 weeks

## COc1ccc(C[C@H]2NC[C@H](O)[C@H]2OC(C)=O)cc1 [Anisomycin]
MDA-MB-231 cells
  Effect of control compounds on 14C-Leucine incorporation: completely inhibit
MDA-MB-468 cells
  Effect of control compounds on 14C-Leucine incorporation: completely inhibit

## O=C1Nc2c(ccc(F)c2F)C1(c1ccc(O)cc1)c1ccc(O)cc1 [Compound 41, 6,7-Difluoro-3,3-bis-(4-hydroxy-phenyl)-1,3-dihydro-indol-2-one]
[1]; 10% FBS
  Effect on proliferation of PC-3: inhibit the proliferation
MCF-7 tumours; [20]
  Tumour size / growth, MCF-7 xenograft: reduces the rate of MCF-7 human breast cancer tumour cell growth; also recorded: reduces the size of MCF7 tumours
MCF-7 tumours; monotherapy, PO or IV
  Tumour regression, MCF-7 xenograft: induces tumour regression at all doses tested; also recorded: tumour regression is noted using all doses tested
MCF-7 tumours; mouse, in vivo
  Effect compared with paclitaxel, MCF-7 xenograft: more pronounced than following administration of paclitaxel; also recorded: appears to be greater than paclitaxel
  Per-oral versus intravenous dosing, MCF-7 xenograft: equally effective by the per-oral and intravenous dosing
MDA-MB-468 tumours; [20]
  Rate of tumour growth, MDA-MB-468 xenograft: reduces the rate of MDA-MB-468 human breast cancer tumour cell growth
MDA-MB-468 tumours; monotherapy, PO or IV
  Tumour regression, MDA-MB-468 xenograft: induces tumour regression at all doses tested; also recorded: more pronounced tumour regression at all doses tested
MDA-MB-468 tumours; mouse, in vivo
  Effect compared with paclitaxel, MDA-MB-468 xenograft: more pronounced than following administration of paclitaxel; also recorded: more effective than paclitaxel
  Per-oral versus intravenous dosing, MDA-MB-468 xenograft: equally effective by per-oral and intravenous dosing

## C[C@@H]1C[C@@H]([C@H](O)CC2CC(=O)NC(=O)C2)C(=O)[C@@H](C)C1 [Cycloheximide]
MDA-MB-231 cells
  Effect of control compounds on 14C-Leucine incorporation: completely inhibit
MDA-MB-468 cells
  Effect of control compounds on 14C-Leucine incorporation: completely inhibit

## O=C1Nc2ccccc2C1(c1ccc(O)cc1)c1ccc(O)cc1 [Oxyphenisatine]
[2]
  Potency relative to Compound 3, prostate cell line panel: lower potency than Compound 3
[1]; Homo sapiens, PC-3, 10% FBS, 72 hours, read-out: EC50 (nM), IC50 values for inhibition of cell proliferation
  IC50: 899 nM
[3]
  IC50: 912 nM
[4]
  IC50: 285 nM
[5]
  IC50: 324 nM
[6]
  IC50: 527 nM
[7]
  IC50: > 3000 nM
[8]
  IC50: 935 nM
[9]
  IC50: > 3000 nM
[10]
  IC50: > 3000 nM
[11]
  IC50: > 3000 nM
[12]
  IC50: 790 nM
[13]
  IC50: 859 nM
[14]
  IC50: 324 nM
[15]
  IC50: 517 nM
[16]
  IC50: > 3000 nM
[17]
  IC50: 228 nM
[18]
  Potency relative to Compound 3, breast cell line panel: slightly lower in potency

## CO[C@H]1C[C@@H]2CC[C@@H](C)[C@@](O)(O2)C(=O)C(=O)N2CCCC[C@H]2C(=O)O[C@H]([C@H](C)C[C@@H]2CC[C@@H](O)[C@H](OC)C2)CC(=O)[C@H](C)/C=C(\C)[C@@H](O)[C@@H](OC)C(=O)[C@H](C)C[C@H](C)/C=C/C=C/C=C/1C [rapamycin]
[19]
  AKT phosphorylation on Ser473 (Western blot): not inhibited
